Values joined by “and” are separate entries in the source; they are usually repeats but may differ in a detail not shown here. Equal values may be shown once. Where only a bound is given, the exact number is not on record here.

For test [1], the target named is T1, JAK3: Recombinant human kinase domain (Homo sapiens, UniProt P52333).
T1 construct: JAK3: Recombinant human kinase domain from Millipore (Cat #14-629) or prepared; purchased Millipore 14-629
In words: Determination of IC50 of Janus Kinase (JAK) inhibition, radioactive end-point 33P-ATP assay, JAK3. The format is biochemical. The following applies: ATP 1.5 uM, peptide 50 uM, 20 minutes, read-out: JAK3-INHIB-DR/v1~NO ADDITIVE~Enzyme_Conc = 100.

Test [2] concerns the target T2, recombinant human SYK360-635 (Homo sapiens, UniProt P43405).
T2 construct: made in house
In words: Determination of IC50 of Spleen Tyrosine Kinase (SYK) inhibition, 33P ATP filtration assay. The format is biochemical. The note with it: SYK aa 360-635 0.5 nM; ATP 20 μM, peptide 5 μM, 0.1% BSA; read-out: SYK_ENZYME_FILTRATION/v1, BSA.

T1 sequence (P52333 822-1111 limits assumed): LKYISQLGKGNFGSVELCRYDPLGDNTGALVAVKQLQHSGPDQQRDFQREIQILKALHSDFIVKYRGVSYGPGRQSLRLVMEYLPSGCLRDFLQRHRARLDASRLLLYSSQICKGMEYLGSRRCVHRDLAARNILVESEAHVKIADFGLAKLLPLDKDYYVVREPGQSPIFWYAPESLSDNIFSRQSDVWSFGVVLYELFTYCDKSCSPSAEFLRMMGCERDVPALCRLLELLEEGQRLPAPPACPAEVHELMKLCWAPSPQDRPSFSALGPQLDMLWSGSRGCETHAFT

In the case of `Cn1nc(-c2cnc3[nH]cc(C(=O)NC(C)(C)CO)c3n2)c2cc(OC(F)F)ccc21` [Example I-285, 2-(5-Difluoromethoxy-1-methyl-1H-indazol-3-yl)-5H-pyrrolo[2,3-b]pyrazine-7-carboxylic acid (2-hydroxy-1,1-dimethyl-ethyl)-amide], the IC50 was determined as 82.5 nM in test [1] and 4.58 nM in test [2].
Regarding `COC[C@@H](C)NC(=O)c1c[nH]c2ncc(-c3nn(C)c4cc(Cl)ccc34)nc12` [Example I-159, 2-(6-Chloro-1-methyl-1H-indazol-3-yl)-5H-pyrrolo[2,3-b]pyrazine-7-carboxylic acid ((R)-2-methoxy-1-methyl-ethyl)-amide], the values for the IC50 in test [1] and in test [2] were 5.83 nM and 66.5 nM, respectively.
The corresponding values for `Cn1nc(-c2cnc3[nH]cc(C(=O)NC4(CO)CCOCC4)c3n2)c2cc(OC(F)F)ccc21` [Example I-286, 2-(5-Difluoromethoxy-1-methyl-1H-indazol-3-yl)-5H-pyrrolo[2,3-b]pyrazine-7-carboxylic acid (4-hydroxymethyl-tetrahydro-pyran-4-yl)-amide] are 748 nM and 83.7 nM.
On to `Cn1nc(-c2cnc3[nH]cc(C(=O)N[C@@H]4CC[C@H](O)C4)c3n2)c2ccc(Cl)cc21` [Example I-151, 2-(6-Chloro-1-methyl-1H-indazol-3-yl)-5H-pyrrolo[2,3-b]pyrazine-7-carboxylic acid ((1R,3S)-3-hydroxy-cyclopentyl)-amide], for which the IC50 amounted to 3.47 nM in test [1] and 23.1 nM in test [2].
The like results for `Cn1nc(-c2cnc3[nH]cc(C(=O)N[C@H]4CCCOC4)c3n2)c2ccc(Cl)cc21` [Example I-138, 2-(6-Chloro-1-methyl-1H-indazol-3-yl)-5H-pyrrolo[2,3-b]pyrazine-7-carboxylic acid (S)-tetrahydro-pyran-3-ylamide] were, in that order, 31.4 nM and 21.9 nM.
Regarding `CC(CC(C)(C)O)NC(=O)c1c[nH]c2ncc(-c3nn(C)c4cc(F)ccc34)nc12` (stereo not shown) [Example I-183, 2-(6-Fluoro-1-methyl-1H-indazol-3-yl)-5H-pyrrolo[2,3-b]pyrazine-7-carboxylic acid (3-hydroxy-1,3-dimethyl-butyl)-amide], the IC50 in test [1] worked out at 80 nM; in test [2], 161 nM.
The like results for `C[C@H](O)[C@H](C)NC(=O)c1c[nH]c2ncc(-c3nn(C)c4cc(Cl)ccc34)nc12` (relative stereo) [Example I-201, 2-(6-Chloro-1-methyl-1H-indazol-3-yl)-5H-pyrrolo[2,3-b]pyrazine-7-carboxylic acid (trans-2-hydroxy-1-methyl-propyl)-amide] were, in that order, 10.5 nM and 7.57 nM.
Consider `COC[C@H](C)NC(=O)c1c[nH]c2ncc(-c3nn(CCN4CC[C@H](F)C4)c4cc(F)ccc34)nc12` [Example I-243, 2-{6-Fluoro-1-[2-((S)-3-fluoro-pyrrolidin-1-yl)-ethyl]-1H-indazol-3-yl}-5H-pyrrolo[2,3-b]pyrazine-7-carboxylic acid ((S)-2-methoxy-1-methyl-ethyl)-amide], for which the IC50 was found to be 1.47 nM in test [1] and 70.5 nM in test [2].
The like results for `CC(C)NC(=O)c1c[nH]c2ncc(-c3nn(Cc4ccon4)c4cc(Cl)ccc34)nc12` [Example I-310, 2-(6-Chloro-1-isoxazol-3-ylmethyl-1H-indazol-3-yl)-5H-pyrrolo[2,3-b]pyrazine-7-carboxylic acid isopropylamide] were, in that order, 31.4 nM and 35.3 nM.
The like results for `Cn1nc(-c2cnc3[nH]cc(C(=O)N[C@H]4CC[C@H](O)C4)c3n2)c2ccc(F)cc21` (relative stereo) [Example I-47, 2-(6-Fluoro-1-methyl-1H-indazol-3-yl)-5H-pyrrolo[2,3-b]pyrazine-7-carboxylic acid (trans-3-hydroxy-cyclopentyl)-amide] were, in that order, 5.31 nM and 21.9 nM.
The corresponding values for `CC[C@H](CO)NC(=O)c1c[nH]c2ncc(-c3nn(C)c4cc(Cl)ccc34)nc12` [Example I-161, 2-(6-Chloro-1-methyl-1H-indazol-3-yl)-5H-pyrrolo[2,3-b]pyrazine-7-carboxylic acid ((R)-1-hydroxymethyl-propyl)-amide] are 16.3 nM and 17.3 nM.
With `C[C@H](NC(=O)c1c[nH]c2ncc(-c3nn(C)c4cc(Cl)ccc34)nc12)C1CC1` [Example I-140, 2-(6-Chloro-1-methyl-1H-indazol-3-yl)-5H-pyrrolo[2,3-b]pyrazine-7-carboxylic acid ((S)-1-cyclopropyl-ethyl)-amide], the figures for the IC50 in test [1] and in test [2] were 1.11 nM and 9.15 nM, respectively.
The corresponding values for `CC(CN1CCC(C#N)C1)NC(=O)c1c[nH]c2ncc(-c3nn(C)c4cc(Cl)ccc34)nc12` (stereo not shown) [Example I-125, 2-(6-Chloro-1-methyl-1H-indazol-3-yl)-5H-pyrrolo[2,3-b]pyrazine-7-carboxylic acid [2-(3-cyano-pyrrolidin-1-yl)-1-methyl-ethyl]-amide] are 29.3 nM and 83.5 nM.
The like results for `COc1ccc2c(-c3cnc4[nH]cc(C(=O)NC(C)(C)CO)c4n3)nn(C)c2c1` [Example I-365, 2-(6-Methoxy-1-methyl-1H-indazol-3-yl)-5H-pyrrolo[2,3-b]pyrazine-7-carboxylic acid (2-hydroxy-1,1-dimethyl-ethyl)-amide] were, in that order, 58.3 nM and 3.32 nM.
The corresponding values for `COC[C@H](C)NC(=O)c1c[nH]c2ncc(-c3nn(Cc4ccc(N5CCOCC5)nc4)c4cc(F)ccc34)nc12` [Example I-237, 2-[6-Fluoro-1-(6-morpholin-4-yl-pyridin-3-ylmethyl)-1H-indazol-3-yl]-5H-pyrrolo[2,3-b]pyrazine-7-carboxylic acid ((S)-2-methoxy-1-methyl-ethyl)-amide] are 0.725 nM and 22.7 nM.
Take `Cn1nc(-c2cnc3[nH]cc(C(=O)NC4(C)CC4)c3n2)c2ccc(F)cc21` [Example I-378, 2-(6-Fluoro-1-methyl-1H-indazol-3-yl)-5H-pyrrolo[2,3-b]pyrazine-7-carboxylic acid (1-methyl-cyclopropyl)-amide]: the IC50 in test [1] came to 12.8 nM; in test [2], 3.08 nM.
With `CC(NC(=O)c1c[nH]c2ncc(-c3nn(CCN(C)C)c4cc(F)ccc34)nc12)c1ccncc1` (stereo not shown) [Example I-249, 2-[1-(2-Dimethylamino-ethyl)-6-fluoro-1H-indazol-3-yl]-5H-pyrrolo[2,3-b]pyrazine-7-carboxylic acid (1-pyridin-4-yl-ethyl)-amide], the IC50 in test [1] was found to be 170 nM; in test [2] it was 1990 nM.
Turning to `Cn1nc(-c2cnc3[nH]cc(C(=O)NCCN)c3n2)c2ccc(Cl)cc21` [Example I-143, 2-(6-Chloro-1-methyl-1H-indazol-3-yl)-5H-pyrrolo[2,3-b]pyrazine-7-carboxylic acid (2-amino-ethyl)-amide], the IC50 is > 1000 nM and 536 nM in test [1]; 54.9 nM in test [2].
With `COC[C@H](C)NC(=O)c1c[nH]c2ncc(-c3nn(CCN(C)C)c4cc(Cl)ccc34)nc12` [Example I-234, 2-[6-Chloro-1-(2-dimethylamino-ethyl)-1H-indazol-3-yl]-5H-pyrrolo[2,3-b]pyrazine-7-carboxylic acid ((S)-2-methoxy-1-methyl-ethyl)-amide], the IC50 in test [1] amounted to 2.88 nM; in test [2], 95.1 nM.
The like results for `CC[C@H](C)NC(=O)c1c[nH]c2ncc(-c3nn(C)c4cc(F)ccc34)nc12` [Example I-178, 2-(6-Fluoro-1-methyl-1H-indazol-3-yl)-5H-pyrrolo[2,3-b]pyrazine-7-carboxylic acid ((S)-sec-butyl)-amide] were, in that order, 1.9 nM and 4.6 nM.
The corresponding values for `CN(C)CCn1nc(-c2cnc3[nH]cc(C(=O)NC(C)(C)C)c3n2)c2ccc(F)cc21` [Example I-313, 2-[1-(2-Dimethylamino-ethyl)-6-fluoro-1H-indazol-3-yl]-5H-pyrrolo[2,3-b]pyrazine-7-carboxylic acid tert-butylamide] are 157 nM and 46 nM.
In the case of `C[C@H](NC(=O)c1c[nH]c2ncc(-c3nn(C)c4cc(F)ccc34)nc12)C(C)(C)C` [Example I-45, 2-(6-Fluoro-1-methyl-1H-indazol-3-yl)-5H-pyrrolo[2,3-b]pyrazine-7-carboxylic acid ((S)-1,2,2-trimethyl-propyl)-amide], the IC50 in test [1] came out at 0.535 nM; in test [2], 11 nM.
For the compound `COC[C@H](C)NC(=O)c1c[nH]c2ncc(-c3nn(CCN4CCCC4)c4cc(F)ccc34)nc12` [Example I-242, 2-[6-Fluoro-1-(2-pyrrolidin-1-yl-ethyl)-1H-indazol-3-yl]-5H-pyrrolo[2,3-b]pyrazine-7-carboxylic acid ((S)-2-methoxy-1-methyl-ethyl)-amide], the IC50 in test [1] stood at 2.1 nM; in test [2], 209 nM.
The corresponding values for `CC(NC(=O)c1c[nH]c2ncc(-c3nn(CCN4CCOCC4)c4cc(Cl)ccc34)nc12)c1cccnc1` (stereo not shown) [Example I-245, 2-[6-Chloro-1-(2-morpholin-4-yl-ethyl)-1H-indazol-3-yl]-5H-pyrrolo[2,3-b]pyrazine-7-carboxylic acid (1-pyridin-3-yl-ethyl)-amide] are 47.2 nM and 131 nM.
In the case of `COC[C@H](C)NC(=O)c1c[nH]c2ncc(-c3nn(C4COC4)c4cc(F)ccc34)nc12` [Example I-103, 2-(6-Fluoro-1-oxetan-3-yl-1H-indazol-3-yl)-5H-pyrrolo[2,3-b]pyrazine-7-carboxylic acid ((S)-2-methoxy-1-methyl-ethyl)-amide], the results for the IC50 in test [1] and in test [2] were 0.26 nM and 43.8 nM, respectively.
Regarding `COc1ccc2c(-c3cnc4[nH]cc(C(=O)NC(C)(C)C)c4n3)nn(C)c2c1` [Example I-366, 2-(6-Methoxy-1-methyl-1H-indazol-3-yl)-5H-pyrrolo[2,3-b]pyrazine-7-carboxylic acid tert-butylamide], the IC50 in test [1] is 63.7 nM; in test [2], < 1 nM (2×) and 1.6 nM.

The values above are taken from patent US8658646B2, “Pyrrolopyrazine kinase inhibitors” (Hoffmann-LaRoche Inc., priority 2011, dated 2014).
